Active and inactive are the calls of the source.
Tests used:
[1] = target: T1, E3 ubiquitin-protein ligase XIAP (Homo sapiens, UniProt P98170); experiment: Counter Screen using XIAP-Bir3 for Chemical Antagonists of Bir1/2 domains of IAP-family anti-apoptotic proteins. [Related pubchem assays (depositor defined):AID1018, AID1449, AID1514, AID1638, AID1749, AID1750, AID488957, AID488963]
[2] = target: T1, E3 ubiquitin-protein ligase XIAP; experiment: small molecules displacing peptide from XIAP – biochemical, IAP family, fluorescence polarization (AID 1018); assay type: functional
[3] = target: 14-3-3 protein gamma (Homo sapiens, UniProt P61981); experiment: modulators of 14-3-3 gamma client binding – dose response (AID 711); assay type: functional
[4] = M. tuberculosis H37Rv growth inhibitors, H37Rv strain (AID 1626); assay type: functional
[5] = A High Throughput Confirmatory Assay used to Identify Novel Compounds that Inhibit Mycobacterium Tuberculosis in the absence of Glycerol.; assay type: functional
[6] = target: Ephrin type-A receptor 4 (Mus musculus, UniProt Q03137); experiment: EphA4 ligand-binding antagonists – biochemical, colorimetric, mouse EphA4, primary screen (AID 689); assay type: functional
[7] = target: T2, Tyrosine-protein phosphatase non-receptor type 11 (Homo sapiens, UniProt Q06124); experiment: PTPN11 enzyme inhibitors – biochemical, selectivity assay for STEP inhibitor project, dose response (AID 602367); assay type: functional; conditions: read-out: IC50_Mean
T2 sequence (Q06124 whole entry): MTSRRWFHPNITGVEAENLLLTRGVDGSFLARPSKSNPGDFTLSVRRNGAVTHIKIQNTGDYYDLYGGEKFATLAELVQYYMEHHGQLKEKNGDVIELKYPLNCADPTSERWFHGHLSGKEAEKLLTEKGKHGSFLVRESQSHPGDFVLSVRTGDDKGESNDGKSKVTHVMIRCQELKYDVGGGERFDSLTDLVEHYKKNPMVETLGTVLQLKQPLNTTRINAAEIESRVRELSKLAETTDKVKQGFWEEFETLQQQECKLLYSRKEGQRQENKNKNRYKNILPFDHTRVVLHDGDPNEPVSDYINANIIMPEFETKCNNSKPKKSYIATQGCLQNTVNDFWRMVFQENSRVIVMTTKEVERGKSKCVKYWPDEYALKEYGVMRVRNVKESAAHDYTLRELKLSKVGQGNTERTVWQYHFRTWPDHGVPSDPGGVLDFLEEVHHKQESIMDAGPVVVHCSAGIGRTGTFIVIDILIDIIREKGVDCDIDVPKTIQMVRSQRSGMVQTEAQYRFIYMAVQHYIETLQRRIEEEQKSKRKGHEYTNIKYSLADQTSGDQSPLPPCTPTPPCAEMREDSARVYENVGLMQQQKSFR

[8] = target: T3, Tyrosine-protein phosphatase non-receptor type 5 (Homo sapiens, UniProt P54829); experiment: PTPN5 enzyme inhibition – biochemical, fluorescence intensity, uHTS hits, confirmation (AID 602372); assay type: functional; conditions: read-out: IC50_Mean
T3 sequence (P54829 whole entry): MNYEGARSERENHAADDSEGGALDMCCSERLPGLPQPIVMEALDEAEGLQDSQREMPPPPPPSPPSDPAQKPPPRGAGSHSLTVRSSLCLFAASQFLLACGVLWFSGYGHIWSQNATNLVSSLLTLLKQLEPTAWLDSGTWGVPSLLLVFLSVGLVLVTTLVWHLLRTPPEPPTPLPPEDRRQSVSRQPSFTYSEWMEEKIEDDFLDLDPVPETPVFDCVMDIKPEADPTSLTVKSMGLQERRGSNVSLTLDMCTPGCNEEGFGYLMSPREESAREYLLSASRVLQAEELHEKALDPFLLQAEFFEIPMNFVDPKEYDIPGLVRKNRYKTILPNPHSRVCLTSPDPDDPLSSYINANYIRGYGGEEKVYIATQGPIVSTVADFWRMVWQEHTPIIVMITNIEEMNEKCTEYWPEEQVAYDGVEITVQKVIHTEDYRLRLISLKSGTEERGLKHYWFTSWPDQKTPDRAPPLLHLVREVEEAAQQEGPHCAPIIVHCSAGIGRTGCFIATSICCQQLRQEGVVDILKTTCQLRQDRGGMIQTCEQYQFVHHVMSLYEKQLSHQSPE

[9] = target: Dual specificity protein phosphatase 3 (Homo sapiens, UniProt P51452); experiment: VHR phosphatase inhibition, dose response, selectivity assay for STEP inhibitor project, biochemical (AID 602374); assay type: functional; conditions: read-out: IC50_Mean
[10] = target: Tyrosine-protein phosphatase non-receptor type 22 (Homo sapiens, UniProt Q9Y2R2); experiment: lymphoid phosphatase LYP inhibitors – biochemical, selectivity assay for STEP inhibitor project, dose response (AID 624241); assay type: functional
[11] = target: Sphingosine 1-phosphate receptor 2 (Homo sapiens, UniProt O95136); experiment: Dose Response Cell Based Assay for Agonists of the S1P2 Receptor of Purchased Analogues. [Related pubchem assays: 729, 843, 854, 736 ]; assay type: functional
[12] = target: Galanin receptor type 2 (Homo sapiens, UniProt O43603); experiment: Dose Response cell-based high-throughput screening assay to identify antagonists of galanin receptor 2 (GALR2). [Related pubchem assays: 828, 866 ]; assay type: functional
[13] = target: T4, Heat shock factor protein 1 (Mus musculus, UniProt P38532); experiment: decrease of HSF1-responsive luciferase luminescence – cell-based, NIH3T3, dose retest, confirmation (AID 2382); assay type: functional;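 further: NIH3T3 fibroblasts with HSF1-driven luciferase reporter stressed by proteasome inhibitor MG132; luminescence from HSF1-driven luciferase expression after 8 hours of MG132 stress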
T4 sequence (P38532 whole entry): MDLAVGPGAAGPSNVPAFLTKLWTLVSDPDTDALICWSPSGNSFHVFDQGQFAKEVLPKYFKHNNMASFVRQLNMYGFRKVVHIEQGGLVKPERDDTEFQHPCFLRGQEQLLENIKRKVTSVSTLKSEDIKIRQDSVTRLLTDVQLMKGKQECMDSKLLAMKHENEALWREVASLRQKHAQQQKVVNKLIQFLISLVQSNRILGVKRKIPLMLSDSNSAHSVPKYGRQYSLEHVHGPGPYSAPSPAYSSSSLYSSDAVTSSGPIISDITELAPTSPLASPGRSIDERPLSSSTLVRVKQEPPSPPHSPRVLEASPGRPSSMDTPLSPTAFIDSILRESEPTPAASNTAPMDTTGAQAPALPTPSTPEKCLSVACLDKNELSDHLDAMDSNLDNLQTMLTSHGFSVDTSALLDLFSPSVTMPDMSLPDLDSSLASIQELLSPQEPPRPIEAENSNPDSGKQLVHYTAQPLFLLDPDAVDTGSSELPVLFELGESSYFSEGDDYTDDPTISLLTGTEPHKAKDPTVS

[14] = target: Galanin receptor type 3 (Homo sapiens, UniProt O60755); experiment: Fluorescence-based cell-based primary high throughput dose response assay to identify antagonists of the Galanin Receptor 3 (GalR3).; assay type: functional
[15] = cells; assay type: functional, cell-based; conditions: HEK-CNG
[16] = target: COUP transcription factor 2 (Homo sapiens, UniProt P24468); experiment: Luminescence-based cell-based high throughput dose response assay to identify inhibitors of COUP-TFII (NR2F2).; assay type: functional;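 further: HEK293 cells transiently cotransfected with COUP-TFII expression vector and reporter; luciferase reporter luminescence driven by COUP-TFII from the pX2-168 reporter plasmid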
[17] = target: Aspartyl aminopeptidase (Plasmodium falciparum 3D7, UniProt Q8I2J3); experiment: Counterscreen for inhibitors of M1 and M17 aminopeptidases: QFRET-based biochemical high throughput dose response assay for inhibitors of the Plasmodium falciparum M18 Aspartyl Aminopeptidase (PFM18AAP). [Related PubChem assays: 1619 (Screening assay (M17LAP inhibitors).), 1445 (Screening assay (M1AAP inhibitors).)]
[18] = test system: HEK293; experiment: inhibition of NOD1-driven NF-kB reporter – cell-based, luminescence, uHTS, primary screen (AID 1578); assay type: functional; conditions: Homo sapiens
[19] = target: T5, Aminopeptidase N (Plasmodium falciparum FcB1/Columbia, UniProt O96935); experiment: malaria alanyl aminopeptidase activity blockers – biochemical, fluorogenic H-Leu-NHMec substrate, 1536-well (AID 1445); design: species or system Plasmodium falciparum 3D7, 3D7
T5 sequence (O96935 whole entry): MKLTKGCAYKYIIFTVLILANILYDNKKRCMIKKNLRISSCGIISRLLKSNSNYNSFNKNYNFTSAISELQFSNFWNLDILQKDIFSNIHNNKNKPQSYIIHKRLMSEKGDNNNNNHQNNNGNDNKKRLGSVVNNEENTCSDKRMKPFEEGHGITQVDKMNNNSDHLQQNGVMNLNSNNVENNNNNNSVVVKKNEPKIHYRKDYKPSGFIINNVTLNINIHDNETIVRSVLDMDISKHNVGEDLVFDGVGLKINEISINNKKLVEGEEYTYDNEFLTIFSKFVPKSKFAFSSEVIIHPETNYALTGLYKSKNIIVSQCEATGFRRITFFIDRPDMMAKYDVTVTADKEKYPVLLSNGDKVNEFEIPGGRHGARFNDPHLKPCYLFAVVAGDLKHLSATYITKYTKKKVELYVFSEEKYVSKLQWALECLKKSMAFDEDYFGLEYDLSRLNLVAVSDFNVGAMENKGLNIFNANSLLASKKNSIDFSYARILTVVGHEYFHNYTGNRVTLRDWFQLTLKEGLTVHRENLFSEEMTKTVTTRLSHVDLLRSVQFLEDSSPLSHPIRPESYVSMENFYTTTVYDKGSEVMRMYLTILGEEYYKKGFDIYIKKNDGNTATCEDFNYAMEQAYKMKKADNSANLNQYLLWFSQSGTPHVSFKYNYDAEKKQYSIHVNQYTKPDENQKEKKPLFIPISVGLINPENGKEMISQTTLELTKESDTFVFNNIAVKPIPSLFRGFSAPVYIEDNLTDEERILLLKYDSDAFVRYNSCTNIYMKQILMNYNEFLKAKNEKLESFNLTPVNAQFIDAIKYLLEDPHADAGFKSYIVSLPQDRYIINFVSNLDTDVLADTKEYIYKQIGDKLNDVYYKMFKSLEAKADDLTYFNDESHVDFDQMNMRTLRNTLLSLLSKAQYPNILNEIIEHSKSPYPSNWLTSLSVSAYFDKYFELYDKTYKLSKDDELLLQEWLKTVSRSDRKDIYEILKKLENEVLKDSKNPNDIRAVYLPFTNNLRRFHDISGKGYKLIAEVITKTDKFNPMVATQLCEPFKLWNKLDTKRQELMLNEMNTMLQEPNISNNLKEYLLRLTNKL

[20] = test system: HEK293; experiment: cells; assay type: functional, cell-based; conditions: Homo sapiens
[21] = test system: HEK293; experiment: cells; assay type: functional, cell-based; conditions: Homo sapiens; remark: listed apart in the source
[22] = target: Procathepsin L (Homo sapiens, UniProt P07711); experiment: CTSL1 protease inhibition – biochemical, QFRET, 1536-well, counter-screen for M1/M17 aminopeptidase inhibitor project, dose response (AID 2214)
[23] = test system: HEK293; experiment: NOD2 signaling inhibitors in MDP-stimulated cells, cell-based, uHTS, luminescence (AID 2001); assay type: functional; conditions: Homo sapiens
[24] = target: T6, Calpain-2 catalytic subunit (Sus scrofa, UniProt P43367); experiment: m-calpain protease blockers, concentration series – biochemical, fluorogenic peptide substrate, dose response (AID 1420); assay type: functional
T6 sequence (P43367 whole entry): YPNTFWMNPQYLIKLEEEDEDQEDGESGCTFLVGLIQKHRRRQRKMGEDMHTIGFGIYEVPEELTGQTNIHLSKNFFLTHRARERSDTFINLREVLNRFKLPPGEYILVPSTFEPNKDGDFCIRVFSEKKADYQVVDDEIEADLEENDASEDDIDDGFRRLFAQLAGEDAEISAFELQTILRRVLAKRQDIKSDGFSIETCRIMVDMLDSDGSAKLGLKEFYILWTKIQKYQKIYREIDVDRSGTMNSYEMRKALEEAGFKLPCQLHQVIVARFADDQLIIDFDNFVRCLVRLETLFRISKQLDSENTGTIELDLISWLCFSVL

[25] = target: Glyceraldehyde-3-phosphate dehydrogenase (Homo sapiens, UniProt P04406)
[26] = target: T7, Bcl-2-related protein A1 (Mus musculus, UniProt Q07440); experiment: small-molecule antagonists of Bfl-1/BH3 interaction – biochemical, TR-FRET, mouse Bfl-1, confirmation (AID 621);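 further: TR-FRET binding of GST-Bfl-1 to FITC-labelled Bid peptide via terbium antibody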
T7 sequence (Q07440 whole entry): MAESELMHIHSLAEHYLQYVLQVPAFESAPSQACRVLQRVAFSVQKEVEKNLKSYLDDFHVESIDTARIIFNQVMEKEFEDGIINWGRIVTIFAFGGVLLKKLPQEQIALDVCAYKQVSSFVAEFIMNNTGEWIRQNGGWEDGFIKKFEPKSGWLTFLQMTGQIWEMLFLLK

[27] = target: T7, Bcl-2-related protein A1; experiment: Bfl-1 binding inhibitors, SAR follow-up, biochemical, fluorescence polarization (AID 1070)

T1 sequence (P98170 whole entry): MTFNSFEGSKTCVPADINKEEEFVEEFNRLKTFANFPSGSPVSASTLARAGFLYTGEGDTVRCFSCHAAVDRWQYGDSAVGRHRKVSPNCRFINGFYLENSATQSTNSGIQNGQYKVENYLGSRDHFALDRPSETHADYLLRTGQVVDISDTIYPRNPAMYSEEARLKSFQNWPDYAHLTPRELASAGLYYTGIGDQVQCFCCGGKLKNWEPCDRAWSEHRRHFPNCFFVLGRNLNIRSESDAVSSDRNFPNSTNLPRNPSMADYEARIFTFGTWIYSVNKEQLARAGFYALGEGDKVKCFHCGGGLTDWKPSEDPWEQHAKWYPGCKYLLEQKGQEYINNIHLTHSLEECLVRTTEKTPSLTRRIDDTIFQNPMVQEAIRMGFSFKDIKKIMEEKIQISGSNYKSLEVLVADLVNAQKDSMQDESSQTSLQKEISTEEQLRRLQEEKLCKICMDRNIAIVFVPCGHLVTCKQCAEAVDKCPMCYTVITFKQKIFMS
Sequence of COUP transcription factor 2 (P24468 whole entry): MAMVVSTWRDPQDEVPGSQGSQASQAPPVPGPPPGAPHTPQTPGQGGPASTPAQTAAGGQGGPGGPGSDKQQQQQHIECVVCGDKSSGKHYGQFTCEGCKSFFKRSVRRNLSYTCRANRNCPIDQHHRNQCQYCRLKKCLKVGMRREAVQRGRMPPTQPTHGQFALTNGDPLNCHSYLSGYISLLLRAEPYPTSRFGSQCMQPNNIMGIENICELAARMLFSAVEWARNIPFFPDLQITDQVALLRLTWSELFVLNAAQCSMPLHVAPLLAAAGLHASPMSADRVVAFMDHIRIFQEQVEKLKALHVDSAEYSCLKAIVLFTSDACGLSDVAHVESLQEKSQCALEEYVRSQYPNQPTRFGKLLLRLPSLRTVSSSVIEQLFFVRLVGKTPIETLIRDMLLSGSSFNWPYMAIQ
Sequence of Ephrin type-A receptor 4 (Q03137 whole entry): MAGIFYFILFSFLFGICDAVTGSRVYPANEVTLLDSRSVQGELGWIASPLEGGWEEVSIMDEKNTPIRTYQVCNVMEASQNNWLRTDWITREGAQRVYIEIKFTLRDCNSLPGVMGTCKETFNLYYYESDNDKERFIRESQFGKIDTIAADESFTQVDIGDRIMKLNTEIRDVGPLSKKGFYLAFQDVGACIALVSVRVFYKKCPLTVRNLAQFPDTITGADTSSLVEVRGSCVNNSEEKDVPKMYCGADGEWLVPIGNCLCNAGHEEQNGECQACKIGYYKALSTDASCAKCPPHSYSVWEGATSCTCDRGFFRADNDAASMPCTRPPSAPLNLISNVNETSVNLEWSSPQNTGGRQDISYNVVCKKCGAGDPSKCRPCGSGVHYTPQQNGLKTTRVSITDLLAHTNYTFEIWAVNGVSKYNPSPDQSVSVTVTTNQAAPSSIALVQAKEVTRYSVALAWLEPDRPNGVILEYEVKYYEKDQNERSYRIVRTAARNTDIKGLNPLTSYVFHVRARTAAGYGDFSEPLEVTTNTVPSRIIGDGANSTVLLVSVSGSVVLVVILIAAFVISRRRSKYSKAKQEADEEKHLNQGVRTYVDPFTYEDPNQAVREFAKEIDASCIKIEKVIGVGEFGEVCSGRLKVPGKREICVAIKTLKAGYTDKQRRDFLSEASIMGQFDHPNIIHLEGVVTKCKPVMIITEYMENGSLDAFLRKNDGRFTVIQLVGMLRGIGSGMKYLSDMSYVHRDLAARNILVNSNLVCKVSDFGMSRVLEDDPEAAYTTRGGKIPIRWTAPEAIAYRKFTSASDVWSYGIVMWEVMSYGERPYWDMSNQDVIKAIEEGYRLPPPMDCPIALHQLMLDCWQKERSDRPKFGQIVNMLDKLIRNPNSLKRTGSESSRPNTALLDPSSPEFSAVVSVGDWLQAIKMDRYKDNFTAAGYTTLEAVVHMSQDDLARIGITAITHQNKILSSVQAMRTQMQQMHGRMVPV
Sequence of Dual specificity protein phosphatase 3 (P51452 whole entry): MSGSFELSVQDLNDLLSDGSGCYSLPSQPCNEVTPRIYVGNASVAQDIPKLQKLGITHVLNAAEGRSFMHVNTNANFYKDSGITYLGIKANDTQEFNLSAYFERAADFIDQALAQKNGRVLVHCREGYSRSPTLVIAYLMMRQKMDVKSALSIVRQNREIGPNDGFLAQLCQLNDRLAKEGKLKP
Sequence of Galanin receptor type 2 (O43603 whole entry): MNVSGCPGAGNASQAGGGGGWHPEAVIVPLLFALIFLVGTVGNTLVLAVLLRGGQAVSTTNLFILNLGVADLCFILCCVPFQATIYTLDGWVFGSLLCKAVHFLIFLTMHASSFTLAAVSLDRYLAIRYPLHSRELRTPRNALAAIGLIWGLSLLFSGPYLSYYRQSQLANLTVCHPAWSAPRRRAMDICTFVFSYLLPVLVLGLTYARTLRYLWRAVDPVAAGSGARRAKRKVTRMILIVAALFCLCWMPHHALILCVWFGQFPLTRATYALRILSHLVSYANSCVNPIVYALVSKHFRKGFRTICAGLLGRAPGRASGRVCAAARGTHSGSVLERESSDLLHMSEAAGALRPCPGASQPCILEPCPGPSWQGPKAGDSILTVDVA
Sequence of Galanin receptor type 3 (O60755 whole entry): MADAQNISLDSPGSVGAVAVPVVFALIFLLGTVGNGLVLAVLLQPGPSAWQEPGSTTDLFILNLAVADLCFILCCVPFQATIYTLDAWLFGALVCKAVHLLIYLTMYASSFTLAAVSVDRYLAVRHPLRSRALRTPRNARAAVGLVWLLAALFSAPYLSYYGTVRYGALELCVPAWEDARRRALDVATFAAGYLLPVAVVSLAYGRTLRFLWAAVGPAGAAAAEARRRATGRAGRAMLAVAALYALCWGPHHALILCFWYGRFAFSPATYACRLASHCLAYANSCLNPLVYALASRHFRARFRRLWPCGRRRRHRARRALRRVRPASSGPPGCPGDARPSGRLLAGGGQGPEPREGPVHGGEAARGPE
Sequence of Glyceraldehyde-3-phosphate dehydrogenase (P04406 whole entry): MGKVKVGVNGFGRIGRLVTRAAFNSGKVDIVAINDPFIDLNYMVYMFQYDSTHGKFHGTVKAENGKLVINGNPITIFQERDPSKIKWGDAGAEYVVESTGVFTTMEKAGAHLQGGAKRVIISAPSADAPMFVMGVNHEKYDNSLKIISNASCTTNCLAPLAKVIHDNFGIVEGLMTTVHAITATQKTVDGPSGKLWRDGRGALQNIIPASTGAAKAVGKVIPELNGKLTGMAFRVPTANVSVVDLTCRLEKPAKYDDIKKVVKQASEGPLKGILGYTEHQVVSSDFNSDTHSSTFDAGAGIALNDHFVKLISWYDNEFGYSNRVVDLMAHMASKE
Sequence of Aspartyl aminopeptidase (Q8I2J3 whole entry): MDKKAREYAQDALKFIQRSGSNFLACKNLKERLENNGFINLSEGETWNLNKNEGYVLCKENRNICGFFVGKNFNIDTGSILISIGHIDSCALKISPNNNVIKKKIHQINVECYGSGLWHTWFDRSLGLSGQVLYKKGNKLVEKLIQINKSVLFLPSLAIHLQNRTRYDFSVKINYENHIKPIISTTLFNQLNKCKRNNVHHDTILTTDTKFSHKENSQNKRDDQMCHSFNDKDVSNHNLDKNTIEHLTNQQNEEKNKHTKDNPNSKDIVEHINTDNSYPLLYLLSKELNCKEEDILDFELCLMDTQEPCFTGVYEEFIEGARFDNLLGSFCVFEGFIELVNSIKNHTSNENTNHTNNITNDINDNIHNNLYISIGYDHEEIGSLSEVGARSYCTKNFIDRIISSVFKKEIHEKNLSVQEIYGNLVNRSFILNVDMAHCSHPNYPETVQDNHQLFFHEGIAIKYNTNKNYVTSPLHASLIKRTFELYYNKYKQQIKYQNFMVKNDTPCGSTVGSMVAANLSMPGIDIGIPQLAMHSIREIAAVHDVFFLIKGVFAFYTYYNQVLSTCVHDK
Sequence of Tyrosine-protein phosphatase non-receptor type 22 (Q9Y2R2 whole entry): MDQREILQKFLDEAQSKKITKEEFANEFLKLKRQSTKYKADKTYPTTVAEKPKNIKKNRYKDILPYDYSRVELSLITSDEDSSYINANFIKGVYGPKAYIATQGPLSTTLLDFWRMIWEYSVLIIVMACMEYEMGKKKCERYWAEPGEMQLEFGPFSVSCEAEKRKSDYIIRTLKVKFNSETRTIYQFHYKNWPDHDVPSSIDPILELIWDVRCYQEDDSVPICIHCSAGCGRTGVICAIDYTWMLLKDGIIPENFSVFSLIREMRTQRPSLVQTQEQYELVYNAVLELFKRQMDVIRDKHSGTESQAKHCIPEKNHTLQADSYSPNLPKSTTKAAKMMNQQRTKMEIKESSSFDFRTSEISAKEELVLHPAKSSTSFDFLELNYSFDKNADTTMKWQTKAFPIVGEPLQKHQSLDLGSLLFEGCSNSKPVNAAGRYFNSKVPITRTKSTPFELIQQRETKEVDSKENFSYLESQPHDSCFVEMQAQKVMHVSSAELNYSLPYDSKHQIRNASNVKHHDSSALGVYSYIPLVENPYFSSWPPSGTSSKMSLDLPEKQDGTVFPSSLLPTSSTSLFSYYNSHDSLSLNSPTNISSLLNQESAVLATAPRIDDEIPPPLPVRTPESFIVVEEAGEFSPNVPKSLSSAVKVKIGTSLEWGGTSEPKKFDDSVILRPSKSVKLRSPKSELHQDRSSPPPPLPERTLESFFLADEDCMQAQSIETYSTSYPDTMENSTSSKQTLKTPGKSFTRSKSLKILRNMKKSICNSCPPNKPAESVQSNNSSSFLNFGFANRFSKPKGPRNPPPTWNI
Sequence of Procathepsin L (P07711 whole entry): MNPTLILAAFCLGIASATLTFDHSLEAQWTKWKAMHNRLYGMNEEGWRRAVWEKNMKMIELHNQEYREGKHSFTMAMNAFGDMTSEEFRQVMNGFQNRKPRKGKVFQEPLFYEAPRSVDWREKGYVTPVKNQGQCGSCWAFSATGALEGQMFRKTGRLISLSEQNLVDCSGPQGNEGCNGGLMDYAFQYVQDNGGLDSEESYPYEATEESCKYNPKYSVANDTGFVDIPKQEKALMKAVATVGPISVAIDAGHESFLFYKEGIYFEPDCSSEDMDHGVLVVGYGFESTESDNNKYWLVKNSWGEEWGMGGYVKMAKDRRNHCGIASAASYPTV

CCn1c(CSc2nnc(-c3cccnc3)n2-c2ccccc2C)nc2cc(C(=O)O)ccc21
IC50 [1]: > 1.56 µM (inactive) | IC50 [2]: > 0.781 µM (not active) | IC50 [3]: < 0.781 µM (active)

Fc1ccc(-c2nnc(CSc3nnc(-c4cccs4)o3)o2)cc1
IC50 [4]: > 100 µM (active)

CC(Oc1cc2oc(=O)c3c(c2cc1Cl)CCCC3)C(=O)NCc1ccccn1 (configuration not stated)
IC50 [5]: > 100 µM (active)

Cc1ccc(-n2c(C)nc3oc4ccccc4c(=O)c3c2=O)cc1
IC50 [6]: > 100 µM (not active) | IC50 [7]: 1.13 µM (active) | IC50 [8]: 14.4 µM (active) | IC50 [9]: 0.779 µM (active) | IC50 [10]: 14 µM (active)

Cc1nn(CC(=O)c2cc(C)n(Cc3ccccc3)c2C)c(C)c1[N+](=O)[O-]
EC50 [11]: > 30 µM (not active)

Cc1sc2ncnc(NCCc3ccc(S(N)(=O)=O)cc3)c2c1C
IC50 [12]: > 42 µM (not active) | EC50 [13]: > 195 µM (not active) | IC50 [14]: 2.95 µM (active) | EC50 [15]: > 29.9 µM (inactive) | IC50 [16]: 4.23 µM (active)

O=C(O)C(Cc1ccccc1)N1C(=O)/C(=C/c2cccc3ccccc23)SC1=S (configuration not stated)
IC50 [17]: > 73.5 µM (not active) | EC50 [18]: 16.5 µM (active) | IC50 [19]: 14.9 µM (active) | IC50 [20]: > 20 µM (inactive) | IC50 [21]: > 20 µM (inactive) | IC50 [22]: 28.4 µM (not active) | IC50 [23]: 18.5 µM (inactive) | IC50 [24]: > 50 µM (not active)

O=C1C(Cl)=C(N2CCN(CCOCCO)CC2)C(=O)N1c1ccnc(Cl)c1
IC50 [25]: > 100 µM (not active) | IC50 [26]: 20.5 µM (active) | IC50 [27]: 33.2 µM (active)

— ChEMBL document CHEMBL1201862, “PubChem BioAssay data set” (2004)
